The source of these data is patent US7563766B2, “Methods and compositions for the promotion of a hair growth utilizing actin binding peptides” (The United States of America as represented by the …, priority 2002, dated 2009).

For one experiment, the system named is chick aortic arches. As to the kind of experiment: Chick aortic arch vessel sprouting assay. Type of experiment: cell-based. On the set-up: key to Sprouting: − = no activity; +/− = low activity; + = active; ++ = high activity. The settings on record: for Sprouting: Table 2 score; for activity in the assays (endothelial cell migration and vessel sprouting): statement covers both migration and sprouting assays. On the procedure:
Chick aortic arch assay—The aortic arch of 13-day-old chick embryos was removed and placed in RPMI 1640. After removal of surrounding connective tissue, transverse sections of the arch were made (1 mm). The resulting aortic rings were carefully attached to the bottom of a 48-well plate, one ring per well, with 20-30 μl of Matrigel (Collaborative Biomedical Products). The rings were placed so that the lumen of each ring could be seen. More Matrigel was added onto the top of the rings to seal them in place. A 100 μl volume of human endothelial—SFM basal growth medium (Invitrogen) containing 1% penicillin streptomycin was added to each well. Thymosin β4, peptide fragments, and exogenous actin (Sigma Chemical Co.) were added to wells in serum-free medium, bringing the final volume of each well to 400 μl. ECGS (200 μg/ml) was used as a positive control. The plates were incubated for 24 hr at 37° C. Rings were fixed and stained with Diff-Quik solution II. Sprouting was scored in a blind assessment by an observer using 10× magnification on an Olympus microscope. Six wells were used for each condition tested, and each assay was done three times.

In experiment [1] the test system is human umbilical vein endothelial cells. In words: HUVEC migration, Boyden chamber assay. Type of experiment: cell-based. More on the design: key to Migration: − = no activity; +/− = low activity; + = active; ++ = high activity. The settings on record: for Migration: Table 2 score. On the procedure:
Cells—HUVECs were isolated and used at passages 2-5. Grant et al., J. Cell Sci. 108:3685-3694 (1995). The cells were cultured in RPMI 1640 (Invitrogen, Carlsbad, Calif.) supplemented with 20% bovine calf serum (Hyclone Laboratories, Logan, Utah), 200 μg/ml of endothelial cell growth supplement (ECGS) (Collaborative Biomedical Products, Bedford, Mass.), 0.8 U/ml heparin sodium (Fisher Scientific, Pittsburgh, Pa.), penicillin/streptomycin (Invitrogen, Carlsbad, Calif.), 10 μg/ml gentamycin (Invitrogen, Carlsbad, Calif.), and 1% fungizone (Invitrogen, Carlsbad, Calif.).
Boyden chamber assay—HUVEC migration assays were conducted in a 48-well micro-chemotaxis chamber (Neuro Probe Inc., Cabin John, Md.) as previously described in Salcedo et al., J. Immunol. 166:7571-7578 (2001). Briefly, PVP-free polycarbonate membranes with 8 μm pores were coated with 50 μg/ml of rat tail collagen (BD Biosciences, Bedford, Mass.) in RPMI 1640 that contained 25 mM HEPES (Invitrogen, Carlsbad, Calif.) at 4° C. overnight. The membranes were dried at least 1 hr prior to use. HUVECs were serum-starved for 2 hr, harvested using Versene (Invitrogen, Carlsbad, Calif.), and resuspended in binding medium that contained RPMI 1640 with 1% BSA and 25 mM HEPES. The lower wells of the chamber were loaded with 1, 10, 100, and 1000 ng/ml of thymosin β4 or peptide fragments that were diluted in binding medium. Basic fibroblast growth factor (bFGF) (200 ng/ml) was used as a positive control. Cells were added to the upper portion of the chamber at a concentration of 50,000 cells per well. The chambers were incubated at 37° C. for 4 hr. The filters were fixed and stained using Diff-Quik (VWR, Bridgeport, N.J.). The cells that successfully migrated through the pores of the membrane were manually quantitated using a CK-2 Olympus microscope at 10× magnification. Each condition was assayed in triplicate, and the assay was repeated twice.

Ends that are not written are not given here.

With “Tβ4^1-8: proteolytic fragment of naturally occurring Tβ4, acSDKP DM (Ac-SDKPDM; UniProt P62328 2-7, looked up, fragment)”, in the experiment with chick aortic arches, the Sprouting result is “−”; the “activity in the assays (endothelial cell migration and vessel sprouting)” value (“activity in the assays” for short) is “inactive”.
Consider “Tβ4^1-16: synthetic, the first 15 amino acid residues of SEQ ID NO: 1 (SDKPDMAEIEKFDKS; ends and bridges not checked; listed as Bos taurus)”, for which the Migration entry in experiment [1] is listed as “−”. Also, in the experiment on chick aortic arches, the “vessel sprouting, in words” value was “very weak activity” and the Sprouting result is given as “+/−”.
Consider “Tβ4^1-28: proteolytic fragment of naturally occurring Tβ4, residues 1 to KN (SDKPDMAEIEKFDKSKLKKTETQEKN; not fully specified; Thymosin beta-4; UniProt P62328 2-27, looked up, fragment)”, for which, in the experiment on chick aortic arches, the Sprouting result is recorded as “+/−”; the “activity in the assays” value is listed as “generally highly active”.
In the case of “Tβ4^7-43: proteolytic fragment of naturally occurring Tβ4, residues 7-43 (AEIEKFDKSKLKKTETQEKNPLPSKETIEQEKQAGES; Thymosin beta-4; UniProt P62328 8-44, looked up, fragment)”, in experiment [1], the Migration result was “++”. Further, in the experiment on chick aortic arches, the Sprouting result is “++”; the “activity in the assays” value is listed as “generally highly active”.
Consider “Tβ4^10-28: synthetic, amino acid residues 10-28 of SEQ ID NO: 1 (EKFDKSKLKKTETQEKNPL; listed as Bos taurus)”, for which the Migration result in experiment [1] is recorded as “+”. In the experiment with chick aortic arches, the Sprouting result is “++”; the “activity in the assays” value is given as “generally highly active”.
For the substance “Tβ4^13-43: proteolytic fragment of naturally occurring Tβ4, residues 13-43 (DKSKLKKTETQEKNPLPSKETIEQEKQAGES; Thymosin beta-4; UniProt P62328 14-44, looked up, fragment)”, in experiment [1], the Migration result was “+”. In addition, in the experiment with chick aortic arches, the Sprouting entry is recorded as “+/−”; the “activity in the assays” value is “generally highly active”.
In the case of “Tβ4^18-19: synthetic, amino acid residues 13-19 of SEQ ID NO: 1 (DKSKLKK; listed as Bos taurus)”, in the experiment on chick aortic arches, the Sprouting entry was “−”; the “activity in the assays” value was “inactive”.
Take “Tβ4^20-48: synthetic, amino acid residues 20-43 of SEQ ID NO: 1 (TETQEKNPLPSKETIEQEKQAGES; listed as Bos taurus)”: the Migration entry in experiment [1] is “++”. For the same substance, in the experiment on chick aortic arches, the Sprouting result is given as “+”; the “activity in the assays” value is listed as “generally highly active”.
As to “Tβ4^27-48: proteolytic fragment PLP SKETI EQEKQ AGES (PLPSKETIEQEKQAGES; Thymosin beta-4; UniProt P62328 28-44, looked up, fragment)”, in experiment [1], the Migration result was “+”. For the same substance, the Sprouting entry in the experiment on chick aortic arches is listed as “+/−”.
With “Tβ4^Ala: naturally occurring β-thymosin, acADKP variant of Tβ4 (ADKPDMAEIEKFDKSKLKKTETQEKNPLPSKETIEQEKQAGES; Thymosin beta-4 N-terminal acetyl; UniProt P62328 2-44, looked up, variant S1A)”, in the experiment with chick aortic arches, the Sprouting result is recorded as “+”; the “activity in the assays” value is given as “active”.
With “Tβ15^18-28: synthetic peptide of thymosin β15 amino acids 13-23, DK SKLKK TNTE”, in the experiment on chick aortic arches, the “vessel sprouting, in words” value is listed as “active” and the Sprouting entry is listed as “+”.
Regarding “amino acid residues 17-22 of SEQ ID NO: 1: six amino acid residues 17-22 of thymosin β4, shorter actin binding sequence (LKKTET; listed as Bos taurus)”, the “endothelial cell migration, in words” value in experiment [1] is “promotes endothelial cell migration”.
